Patent US9452980B2, “Substituted benzamides” (Hoffmann-La Roche Inc., priority 2009, dated 2016)
Counter-ions that a name gives are not always drawn. Like-named read-outs stand apart in the source and are kept apart here.

How the values were obtained:
mouse TAAR1 = mouse TAAR1 (Mus musculus (Mouse), UniProt Q923Y8); test: Radioligand binding assay on mouse TAAR1
In short: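 Displacement of the tritiated oxazol-2-ylamine radioligand was measured by filtration and scintillation counting after 1 h incubation at 4 °C. Test concentrations ran 10 pM–10 μM in duplicate, with 10 μM cold ligand giving nonspecific binding. The receptor source was membranes of a stable mouse TAAR1 HEK293 line.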

rat TAAR1 = rat TAAR1 (Rattus norvegicus (Rat), UniProt Q923Y9); test: Radioligand binding assay on rat TAAR1
In short: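 Membranes from HEK293 cells stably expressing rat TAAR1, with Kd checked per batch by saturation. Competition with ³H-(S)-4-[(ethyl-phenyl-amino)-methyl]-4,5-dihydro-oxazol-2-ylamine, compounds 10 pM–10 μM in duplicate, 1 hr at 4 °C. Filtration then scintillation counting; nonspecific binding defined with 10 μM unlabeled ligand.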

[1] = mouse TAAR1, HEK-293 membranes, first value of cell mouse/rat, read-out: Ki (μM) mouse
[2] = rat TAAR1, HEK-293 membranes, second value of cell mouse/rat, read-out: Ki (μM) rat

rat TAAR1, sequence (Q923Y9 whole entry): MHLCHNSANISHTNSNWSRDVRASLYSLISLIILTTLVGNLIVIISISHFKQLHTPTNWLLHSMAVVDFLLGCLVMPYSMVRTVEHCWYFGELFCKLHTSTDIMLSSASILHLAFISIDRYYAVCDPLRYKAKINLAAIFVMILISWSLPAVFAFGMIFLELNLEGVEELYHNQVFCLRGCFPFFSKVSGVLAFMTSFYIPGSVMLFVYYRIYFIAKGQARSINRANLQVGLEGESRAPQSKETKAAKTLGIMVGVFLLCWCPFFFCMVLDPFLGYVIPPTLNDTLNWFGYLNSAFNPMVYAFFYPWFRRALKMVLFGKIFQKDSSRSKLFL
mouse TAAR1, sequence (Q923Y8 whole entry): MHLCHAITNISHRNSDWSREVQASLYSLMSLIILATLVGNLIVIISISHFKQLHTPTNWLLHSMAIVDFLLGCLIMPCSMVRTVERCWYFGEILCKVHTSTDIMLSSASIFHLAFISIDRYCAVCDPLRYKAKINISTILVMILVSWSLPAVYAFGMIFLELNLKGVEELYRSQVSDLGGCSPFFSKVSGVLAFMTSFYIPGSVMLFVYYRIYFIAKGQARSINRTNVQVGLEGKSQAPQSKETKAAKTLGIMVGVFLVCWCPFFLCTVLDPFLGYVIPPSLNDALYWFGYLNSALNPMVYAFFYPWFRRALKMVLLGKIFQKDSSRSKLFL

Work on `O=C(Nc1ccc(C2CCNC2)cc1)OCCc1ccc(C(F)(F)F)cc1` (racemic) [Example 122, (RS)-(4-Pyrrolidin-3-yl-phenyl)-carbamic acid 2-(4-trifluoromethyl-phenyl)-ethyl ester] yielded a Ki (mouse TAAR1; [1]) of 0.0003 µM and a Ki (rat TAAR1; [2]) of 0.0011 µM.

`O=C(Nc1ccc(C2CCNC2)cc1)OCCc1cccc(C(F)(F)F)c1` (racemic) [Example 123, (RS)-(4-Pyrrolidin-3-yl-phenyl)-carbamic acid 2-(3-trifluoromethyl-phenyl)-ethyl ester] showed a Ki (mouse TAAR1; [1]) of 0.0014 µM and a Ki (rat TAAR1; [2]) of 0.0022 µM.

Work on `O=C(Nc1ccc(C2CCNC2)cc1)OCCc1cc(F)ccc1F` (racemic) [Example 124, (RS)-(4-Pyrrolidin-3-yl-phenyl)-carbamic acid 2-(2,5-difluoro-phenyl)-ethyl ester] yielded a Ki (mouse TAAR1; [1]) of 0.0013 µM and a Ki (rat TAAR1; [2]) of 0.0036 µM.

`O=C(Nc1ccc(C2CCNC2)cc1)OCCc1ccc(Cl)c(Cl)c1` (racemic) [Example 126, (RS)-(4-Pyrrolidin-3-yl-phenyl)-carbamic acid 2-(3,4-dichloro-phenyl)-ethyl ester] gave a Ki (mouse TAAR1; [1]) of 0.0019 µM and a Ki (rat TAAR1; [2]) of 0.0022 µM.

For `CC(OC(=O)Nc1ccc(C2CCNC2)cc1)c1ccc(Cl)cc1` (racemic) [Example 127, (RS)-(4-Pyrrolidin-3-yl-phenyl)-carbamic acid (RS)-1-(4-chloro-phenyl)-ethyl ester], the Ki (mouse TAAR1; [1]) was 0.0006 µM and the Ki (rat TAAR1; [2]) was 0.002 µM.

For `O=C(Nc1ccc(C2CCNC2)cc1)OCCCc1ccc(Cl)cc1` (racemic) [Example 128, (RS)-(4-Pyrrolidin-3-yl-phenyl)-carbamic acid 3-(4-chloro-phenyl)-propyl ester], the Ki (mouse TAAR1; [1]) was 0.0003 µM and the Ki (rat TAAR1; [2]) was 0.0003 µM.

`O=C(Nc1ccc(C2CCNC2)cc1)OC(c1ccc(Cl)cc1)C(F)(F)F` (racemic) [Example 130, (RS)-(4-Pyrrolidin-3-yl-phenyl)-carbamic acid (RS)-1-(4-chloro-phenyl)-2,2,2-trifluoro-ethyl ester] was tested, and the Ki (mouse TAAR1; [1]) was 0.0017 µM and the Ki (rat TAAR1; [2]) was 0.0169 µM.

`O=C(Nc1ccc(CCC2CCNC2)cc1)c1ncccc1F` (racemic) [Example 132, (RS)-3-Fluoro-pyridine-2-carboxylic acid [4-(2-pyrrolidin-3-yl-ethyl)-phenyl]-amide hydrochloride] showed a Ki (mouse TAAR1; [1]) of 9.99 µM and a Ki (rat TAAR1; [2]) of 0.141 µM.

In the case of `O=C(Nc1ccc(CCC2CCNC2)cc1)c1ncc(F)cc1F` (racemic) [Example 133, (RS)-3,5-Difluoro-pyridine-2-carboxylic acid [4-(2-pyrrolidin-3-yl-ethyl)-phenyl]-amide hydrochloride], the Ki (mouse TAAR1; [1]) is reported as 1.52 µM and the Ki (rat TAAR1; [2]) is reported as 0.0174 µM.

With `O=C(Nc1ccc(CCC2CCCNC2)cc1)c1ncccc1F` (racemic) [Example 134, (RS)-3-Fluoro-pyridine-2-carboxylic acid [4-(2-piperidin-3-yl-ethyl)-phenyl]-amide hydrochloride] the Ki (mouse TAAR1; [1]) was 2.06 µM and the Ki (rat TAAR1; [2]) was 0.106 µM.

`O=C(Nc1ccc(CCC2CCCNC2)cc1)c1ncc(F)cc1F` (racemic) [Example 135, (RS)-3,5-Difluoro-pyridine-2-carboxylic acid [4-(2-piperidin-3-yl-ethyl)-phenyl]-amide hydrochloride] showed a Ki (mouse TAAR1; [1]) of 1.27 µM and a Ki (rat TAAR1; [2]) of 0.0134 µM.

In the case of `O=C(Nc1ccc(C(=O)C2CCNC2)cc1)c1ccc(Cl)cc1` (racemic) [Example 136, (RS)-4-Chloro-N-[4-(pyrrolidine-3-carbonyl)-phenyl]-benzamide hydrochloride], the Ki (mouse TAAR1) is reported as 0.153 µM and the Ki (rat TAAR1) is reported as 0.0008 µM.

In the case of `CCCc1ccc(C(=O)Nc2ccc(C3CCCNC3)cc2)cc1` (racemic) [Example 137, (RS)—N-(4-Piperidin-3-yl-phenyl)-4-propyl-benzamide hydrochloride], the Ki (mouse TAAR1; [1]) is reported as 0.0062 µM and the Ki (rat TAAR1; [2]) is reported as 0.0015 µM.

Compound `O=C(Nc1ccc(C2CCCNC2)cc1)c1ccc(C(F)(F)F)cn1` (racemic) [Example 138, (RS)-5-Trifluoromethyl-pyridine-2-carboxylic acid (4-piperidin-3-yl-phenyl)-amide hydrochloride] has a Ki (mouse TAAR1; [1]) of 0.035 µM and a Ki (rat TAAR1; [2]) of 0.0059 µM.

Work on `O=C(Nc1ccc(C2CCNC2)cc1)c1ccc(C(F)(F)F)cn1` (racemic) [Example 139, (RS)-5-Trifluoromethyl-pyridine-2-carboxylic acid (4-pyrrolidin-3-yl-phenyl)-amide hydrochloride] yielded a Ki (mouse TAAR1; [1]) of 0.0158 µM and a Ki (rat TAAR1; [2]) of 0.0051 µM.

Work on `O=C(Nc1ccc(C2CCNC2)nc1)c1ccc(Cl)cc1` (racemic) [Example 140, (RS)-4-Chloro-N-(6-pyrrolidin-3-yl-pyridin-3-yl)-benzamide] yielded a Ki (mouse TAAR1; [1]) of 0.245 µM and a Ki (rat TAAR1; [2]) of 0.0358 µM.

`O=C(Nc1ccc(C2CNCCO2)cc1)c1ccc(C(F)(F)F)cn1` (racemic) [Example 141, (RS)-5-Trifluoromethyl-pyridine-2-carboxylic acid (4-morpholin-2-yl-phenyl)-amide hydrochloride] gave a Ki (mouse TAAR1; [1]) of 0.0201 µM and a Ki (rat TAAR1; [2]) of 0.0024 µM.

`O=C(Nc1ccc(CCC2CCCN2)cc1)c1ccc(Cl)cc1` (racemic) [Example 142, (RS)-4-Chloro-N-[4-(2-pyrrolidin-2-yl-ethyl)-phenyl]-benzamide hydrochloride] gave a Ki (mouse TAAR1; [1]) of 0.0126 µM and a Ki (rat TAAR1; [2]) of 0.0004 µM.

`O=C(Nc1ccc(C2CNCCO2)cc1)c1ccc(Cl)cc1F` (racemic) [Example 146, (RS)-4-Chloro-2-fluoro-N-(4-morpholin-2-yl-phenyl)-benzamide hydrochloride] was tested, and the Ki (mouse TAAR1; read-out: Ki (μM) mouse) was 0.0268 µM and the Ki (rat TAAR1; [2]) was 0.001 µM.

Work on `O=C(Nc1ccc(CC2CCNC2)cc1)c1ccc(Cl)cc1` (racemic) [Example 149, (RS)-4-Chloro-N-(4-pyrrolidin-3-ylmethyl-phenyl)-benzamide hydrochloride] yielded a Ki (mouse TAAR1; [1]) of 0.0011 µM and a Ki (rat TAAR1; [2]) of 0.001 µM.

In the case of `O=C(Nc1ccc(CCC2CCCN2)cc1)c1ccc(Cl)c(Cl)c1` (racemic) [Example 154, (RS)-3,4-Dichloro-N-[4-(2-pyrrolidin-2-yl-ethyl)-phenyl]-benzamide hydrochloride], the Ki (mouse TAAR1; [1]) is reported as 0.0082 µM and the Ki (rat TAAR1; [2]) is reported as 0.0002 µM.

Work on `O=C(Nc1ccc(CCC2CCCN2)cc1)c1ccc(C(F)(F)F)cc1` (racemic) [Example 155, (RS)—N-[4-(2-Pyrrolidin-2-yl-ethyl)-phenyl]-4-trifluoromethyl-benzamide hydrochloride] yielded a Ki (mouse TAAR1; [1]) of 0.0107 µM and a Ki (rat TAAR1; [2]) of 0.0009 µM.

`O=C(Nc1ccc(CCC2CCCN2)cc1)c1ccc(F)cc1` (racemic) [Example 156, (RS)-4-Fluoro-N-[4-(2-pyrrolidin-2-yl-ethyl)-phenyl]-benzamide hydrochloride] gave a Ki (mouse TAAR1; [1]) of 0.153 µM and a Ki (rat TAAR1; [2]) of 0.002 µM.

`O=C(Nc1ccc(CCC2CCCN2)cc1)c1cccc(Cl)c1` (racemic) [Example 157, (RS)-3-Chloro-N-[4-(2-pyrrolidin-2-yl-ethyl)-phenyl]-benzamide] was tested, and the Ki (mouse TAAR1; [1]) was 0.142 µM and the Ki (rat TAAR1; [2]) was 0.0007 µM.

`CCOc1ccc(C(=O)Nc2ccc(CCC3CCCN3)cc2)cc1` (racemic) [Example 158, (RS)-4-Ethoxy-N-[4-(2-pyrrolidin-2-yl-ethyl)-phenyl]-benzamide hydrochloride] gave a Ki (mouse TAAR1; [1]) of 0.0326 µM and a Ki (rat TAAR1; [2]) of 0.0014 µM.

With `O=C(Nc1ccc(C2CCCCN2)cc1)c1ccc(Cl)cc1` (racemic) [Example 159, (RS)-4-Chloro-N-(4-piperidin-2-yl-phenyl)-benzamide hydrochloride] the Ki (mouse TAAR1; [1]) was 6.38 µM and the Ki (rat TAAR1; [2]) was 0.63 µM.

Compound `O=C(Nc1ccc(C2CCCNC2)cc1)c1cnc(Cl)cn1` (racemic) [Example 160, (RS)-5-Chloro-pyrazine-2-carboxylic acid (4-piperidin-3-yl-phenyl)-amide hydrochloride] has a Ki (mouse TAAR1; [1]) of 0.0851 µM and a Ki (rat TAAR1; [2]) of 0.0046 µM.

`O=C(Nc1ccc(C2CCNC2)cc1)c1cnc(Cl)cn1` (racemic) [Example 163, (RS)-5-Chloro-N-(4-(pyrrolidin-3-yl)phenyl)pyrazine-2-carboxamide hydrochloride] showed a Ki (mouse TAAR1; [1]) of 0.0573 µM and a Ki (rat TAAR1; [2]) of 0.0121 µM.

In the case of `O=C(Nc1ccc(CCC2CCCN2)cc1)c1cnc(Cl)cn1` (racemic) [Example 164, (RS)-5-Chloro-N-(4-(2-(pyrrolidin-2-yl)ethyl)phenyl)pyrazine-2-carboxamide hydrochloride], the Ki (mouse TAAR1; [1]) is reported as 0.0871 µM and the Ki (rat TAAR1; [2]) is reported as 0.0121 µM.

In the case of `N#Cc1ccc(C(=O)Nc2ccc(C3CCNC3)cc2)nc1` (racemic) [Example 165, (RS)-5-Cyano-N-(4-(pyrrolidin-3-yl)phenyl)picolinamide hydrochloride], the Ki (mouse TAAR1; [1]) is reported as 0.126 µM and the Ki (rat TAAR1; [2]) is reported as 0.0411 µM.

For `O=C(Nc1ccc(CCC2CCCN2)cc1)c1ccc(F)cn1` (racemic) [Example 166, (RS)-5-Fluoro-N-(4-(2-(pyrrolidin-2-yl)ethyl)phenyl)picolinamide hydrochloride], the Ki (mouse TAAR1; [1]) was 0.394 µM and the Ki (rat TAAR1; [2]) was 0.0212 µM.

For `O=C(Nc1ccc(CCC2CCCCN2)cc1)c1ccc(Cl)cc1` (racemic) [Example 169, (RS)-4-Chloro-N-(4-(2-(piperidin-2-yl)ethyl)phenyl)benzamide hydrochloride], the Ki (mouse TAAR1; [1]) was 0.0607 µM and the Ki (rat TAAR1; [2]) was 0.0027 µM.

`O=C(Nc1ccc(CCC2CCCCN2)cc1)c1ccc(F)cc1` (racemic) [Example 170, (RS)-4-Fluoro-N-(4-(2-(piperidin-2-yl)ethyl)phenyl)benzamide hydrochloride] gave a Ki (mouse TAAR1; [1]) of 0.234 µM and a Ki (rat TAAR1; [2]) of 0.0158 µM.

`O=C(Nc1ccc(CCC2CCCCN2)cc1)c1ccc(Cl)cn1` (racemic) [Example 171, (RS)-5-Chloro-N-(4-(2-(piperidin-2-yl)ethyl)phenyl)picolinamide hydrochloride] gave a Ki (mouse TAAR1; [1]) of 0.198 µM and a Ki (rat TAAR1; [2]) of 0.0101 µM.

With `CCOc1ccc(C(=O)Nc2ccc(CCC3CCCN3)cc2)nc1` (racemic) [Example 172, (RS)-5-Ethoxy-N-(4-(2-(pyrrolidin-2-yl)ethyl)phenyl)picolinamide hydrochloride] the Ki (mouse TAAR1; [1]) was 0.113 µM and the Ki (rat TAAR1; [2]) was 0.0077 µM.

`O=C(Nc1ccc(CCC2CCCCN2)cc1)c1ccc(Cl)nc1` (racemic) [Example 173, (RS)-6-Chloro-N-(4-(2-(piperidin-2-yl)ethyl)phenyl)nicotinamide hydrochloride] showed a Ki (mouse TAAR1; [1]) of 0.824 µM and a Ki (rat TAAR1; [2]) of 0.0218 µM.
